Several values for one entry are separate records, joined by “and”; a condition that tells them apart may be missing. Equal entries are not always repeated.
Settings: Burnett expansion method

O=C=O [carbon dioxide]
343.13 K, Fluid (supercritical or subcritical phases)
Settings | mass density
214.49 kPa | 3.3311 kg/m3 and 3.3345 kg/m3
295.01 kPa | 4.5929 kg/m3 and 4.5951 kg/m3
405.34 kPa | 6.3329 kg/m3 and 6.3325 kg/m3
556.21 kPa | 8.7319 kg/m3 and 8.7265 kg/m3
761.77 kPa | 12.0399 kg/m3 and 12.0258 kg/m3
1040.8 kPa | 16.6004 kg/m3 and 16.5719 kg/m3
1417 kPa | 22.8886 kg/m3 and 22.8367 kg/m3
1919.8 kPa | 31.5581 kg/m3 and 31.4693 kg/m3
2584.2 kPa | 43.5107 kg/m3 and 43.3646 kg/m3
3447.3 kPa | 59.9881 kg/m3 and 59.7539 kg/m3
4543 kPa | 82.704 kg/m3 and 82.3364 kg/m3
5888.2 kPa | 114.017 kg/m3 and 113.448 kg/m3
7469.2 kPa | 157.178 kg/m3 and 156.31 kg/m3

[Ar] [argon]
Gas
Settings | mass density
318.75 K, 217.45 kPa | 3.2819 kg/m3 and 3.2809 kg/m3
318.75 K, 299.59 kPa | 4.5227 kg/m3 and 4.5217 kg/m3
318.75 K, 412.69 kPa | 6.2318 kg/m3 and 6.2327 kg/m3
318.75 K, 568.39 kPa | 8.5885 kg/m3 and 8.5891 kg/m3
318.75 K, 782.65 kPa | 11.8364 kg/m3 and 11.8363 kg/m3
318.75 K, 1077.3 kPa | 16.3128 kg/m3 and 16.3112 kg/m3
318.75 K, 2800.7 kPa | 42.6996 kg/m3 and 42.685 kg/m3
318.75 K, 3845.5 kPa | 58.8449 kg/m3 and 58.8199 kg/m3
318.75 K, 5275.1 kPa | 81.0918 kg/m3 and 81.0507 kg/m3
318.75 K, 7231.5 kPa | 111.747 kg/m3 and 111.681 kg/m3
318.76 K, 157.82 kPa | 2.3805 kg/m3 and 2.3815 kg/m3
318.76 K, 1482.3 kPa | 22.4815 kg/m3 and 22.4774 kg/m3
318.76 K, 2038.2 kPa | 30.9829 kg/m3 and 30.9748 kg/m3

From the NIST ThermoML archive (doi:10.1021/je100148h)
